Measured values reported in patent publication US20190040447A1, “Assay for compounds having activity against influenza” (priority 2016, published 2019).
pIC50: −log10 of the molar value.

Biological target: RNA-dependent RNA polymerase (RdRp) comprised in an influenza viral ribonucleoprotein (RNP) complex (Influenza A virus, UniProt P03428+P03431+P03433)
Experiment: Influenza filter RNP transcription/replication assay (HTS screen using the method of the invention)
Format: biochemical, Influenza virus (Influenza A/PR/8/34, Influenza B\Lee\40)
Conditions: virus lysate containing native vRNP; which assay (transcription or replication) and which strain are not stated

SMILES: O=C(O)[C@H]1[C@H]2CC[C@H]([C@H]3C[C@H]32)[C@@H]1Nc1nc(-c2n[nH]c3ncc(F)cc23)ncc1F [(−)-(1R,2S,4R,5S,6S,7S)-7-((5-fluoro-2-(5-fluoro-1H-pyrazolo[3,4-b]pyridin-3-yl)pyrimidin-4-yl)amino)tricyclo[3.2.2.02,4]nonane-6-carboxylic Acid]
- pIC50: 9.70
